The test addresses T1, Dimer of Gag-Pol polyprotein [489-587] (Human immunodeficiency virus 1, UniProt P12497).
T1 construct: 489-587
Briefly: Protease Inhibition Assay. The following applies: pH 5.5; 37 °C. From the text:
The IC50 value is the inhibitor concentration that results in 50% of HIV-1 protease activity measured by a spectrophotometric assay using a chromophoric peptide.

The term Ki denotes a dissociation constant, usually derived from enzyme kinetics or from competition with a known ligand. A low value points to tighter binding.

`O=C1N(Cc2ccc(CO)cc2)[C@H](Cc2ccccc2)[C@H](O)[C@@H](O)[C@@H](Cc2ccccc2)N1Cc1ccc(CO)cc1` [(4R,5S,6S,7R)-4,7-dibenzyl-5,6-dihydroxy-1,3-bis({[4-(hydroxymethyl)phenyl]methyl})-1,3-diazepan-2-one] registered a Ki of less than 1 nM.
Under `O=C1N(Cc2ccc(CO)cc2)[C@H](COc2ccccc2)[C@H](O)[C@@H](O)[C@@H](COc2ccccc2)N1Cc1ccc(CO)cc1` [(4R,5S,6S,7R)-5,6-dihydroxy-1,3-bis({[4-(hydroxymethyl)phenyl]methyl})-4,7-bis(phenoxymethyl)-1,3-diazepan-2-one] stands less than 1 nM.

These data come from BindingDB's records for doi:10.1021/jm960728j (Uppsala University, 1997).
